In US20240002405A1, “ANTIMICROBIAL COMPOUNDS, SYNTHESIS METHODS, AND USES THEREOF” (Ankh Life Sciences Limited, priority 2022, published 2024):
≈ marks a conversion by molar mass, not a printed value. Where “and” joins values, the source holds several entries; their conditions need not be identical. Identical values can stand only once. Counter-ions that a name gives are not always drawn. Like-named read-outs stand apart in the source and are kept apart here.

Assays:
[1] = tested on: MRSA: S. aureus resistant to methicillin and oxacillin (ATCC 43300); test: Broth microdilution MIC assay, MRSA; conditions: for MIC: Staphylococcus aureus, ATCC43300|MRSA, read-out: MIC (bacterial growth inhibition)
Method: (§2) The concentration of compound required to visibly stop the growth of bacteria is known as minimum inhibitory concentration (MIC). Different concentrations of the compounds are tested for the exact same number of bacteria, and the growth is monitored with time.
(§3) Bacterial strains were purchased from the American Type Culture Collection (ATCC) for the studies.
(§4) The MIC assay procedure follows the guidelines set by the Clinical Laboratory Sciences Institute (CLSI).
(§5) To do this, bacteria were transferred from pure agar culture, aseptically transferred in 5 mL of Cation-Adjusted Mueller-Hinton Broth (CAMHB). The broth was incubated overnight at 35° C. to stationary phase to achieve a turbidity suspension. A spectrophotometer (SpectraMax ID5) was used to measure the turbidity (optical density—OD at 625 nm). The inoculum was prepared by adjusting the turbidity of overnight culture to 0.5 McFarland, which is equal to the defined number of bacteria 1×10^8 CFU/ml.
(§6) (b) Compound Dilution: All compounds used in the study were dissolved in sterile ultra-pure DMSO (VWR International, PA, USA) and maintained at −80° C. Stock solution of the compound was freshly prepared the day of use or is prepared from a frozen stock solution stored at −80° C. […] The compound solution was prepared at a desired concentration in DMSO, and 1/10 dilution was performed in a sterile CAMHB medium. This 10-fold dilution of stock solution was used for a 2-fold serial dilution in a 96-well plate to observe an inhibitory effect of the compound on bacterial growth. 100 μL of diluted drug solution was transferred to a first column of the 96-well plate. 50 μL of sterile CAMHB was transferred to each well from well 2 to well 12. Next, 50 μL was removed from well 1 and added to well 2. The contents from well 2 were mixed by pipetting up and down. Next, 50 µL were removed from well 2 and added to well 3. This process was continued till well 11 is reached. 50 μL was discarded from the well 11. Each compound concentration was tested in triplicate.
(§7) (c) Inoculation of 96-well plate: The same number of bacteria (1×10^5 CFU/mL) were prepared after 150-fold dilution of 0.5 McFarland inoculum and used to add in the wells of different drug concentrations. 50 μL of working inoculum was carefully added to each well, except the sterility well 12. Mixing is performed by gently flushing the inoculum in and out of the pipette tip four or five times, avoiding splashing and bubble formation.
(§8) (d) Incubation: Plates were incubated at 35° C. for 24 hours without shaking or agitation.
(§9) (e) Determination of MIC: After 18-24 hours of incubation, the plates were read for MIC. SpectraMax iD5 microplate reader was used to measure turbidity at different time points. Turbidity (OD) increases as the bacteria grow over time.

MRSA (ATCC 43300) = test: Minimum bactericidal concentration (MBC) assay, MRSA; assay type: cell-based; conditions: Staphylococcus aureus
Method: (§1) (f) Determination of MBC: MBC was determined by sampling all the macroscopically clear wells. Before sampling, the wells were gently mixed by flushing them with a pipette, and a 5 μL was removed and placed on an agar plate suitable for the growth of the microbe being tested. The agar plate was divided into three parts to test three trials of a single concentration. The sample was allowed to be absorbed into the agar for ˜30 minutes. The plates were then incubated for 24 hours at 37° C. After incubation, the plates were examined to determine the compound concentration at which 99.9% killing was achieved.

S. aureus (ATCC 29213) [2] = test: Minimum bactericidal concentration (MBC) assay, S. aureus; assay type: cell-based; conditions: Staphylococcus aureus
Method: as §1

S. aureus (ATCC 29213) [3] = test: Broth microdilution MIC assay, S. aureus; conditions: for MIC: Staphylococcus aureus; for MIC (bacterial growth inhibition) / concentration at which activity is shown: S. aureus
Method: as §2, §3, §4, §5, §6, §7, §8, §9

E. coli (ATCC 25922) = test: Broth microdilution MIC assay, E. coli; conditions: for MIC: Escherichia coli
Method: as §2, §3, §4, §5, §6, §7, §8, §9

[4] = tested on: Candida albicans (ATCC 18804); test: Antifungal broth microdilution MIC assay; assay type: cell-based; conditions: for MIC: Candida albicans, ATCC18804, C. albicans, read-out: MIC (antifungal growth inhibition)
Method: Synthesized compounds were tested for antifungal activity towards the fungus strain, Candida albicans. […] Different concentrations of the compounds were tested for the exact same number of fungi, and the growth is monitored with time. MIC was determined by using the broth microdilution assay. Fungus strain, C. albicans was purchased from ATCC (ID: 18804) for the studies. […] This solution was used to make a working solution by preparing a 1:50 dilution, followed by a 1:20 dilution, with RPMI 1640 medium to obtain 2× test inoculum. The 2× inoculum is diluted 1:1 to achieve the final inoculum size (0.5×10^3 to 2.5×10^3 cells per mL). RPMI 1640 medium was used with L-glutamine and phenol red as a pH indicator but without bicarbonate and a glucose concentration of 0.2%. […] All plates were then read visually under normal laboratory lighting using a mirror viewer. Wells were scored for the growth compared to that of the drug free control well. Plates were read at 530 nm with subtraction of the blank from the reading of each well. Turbidity (OD) increases as the fungus grows over time.

[5] = tested on: gram positive and negative bacteria; test: Antibacterial testing against gram positive and negative bacteria; assay type: cell-based
Method: In addition to the harmaline dimers compounds, other bicyclic indole compounds (203, 233, 476/6 and 504/6,) were also tested against gram positive and negative bacteria. Particularly, the indole ethyl urea molecules 203, 233 and the tryptamide dimer molecules 476/6, 504/6, as shown below, were tested.

Solubility in DMSO = assay type: physicochemical
E. faecalis (ATCC 29212) [6] = test: Broth microdilution MIC assay, E. faecalis; conditions: Enterococcus faecalis, ATCC29212, read-out: MIC (bacterial growth inhibition)
Method: as §2, §3, §4, §5, §6, §7, §8, §9

[7] = tested on: VREF: E. faecalis resistant to vancomycin (ATCC 51299); test: Broth microdilution MIC assay, VREF; conditions: Enterococcus faecalis, ATCC51299, read-out: MIC (bacterial growth inhibition)
Method: as §2, §3, §4, §5, §6, §7, §8, §9

[8] = tested on: engineered Salmonella typhimurium strain (umuC, β-galactosidase)
Description: The EBPI UMU-ChromoTest™ assay is used for the detection and quantification of genotoxicity of compounds and is based on the International Organization for Standardization protocol ISO 13829. The UMU-ChromoTest™ assay utilizes a native bacterial mechanism for the detection of compound genotoxicity. The bacteria used for the assay is an engineered Salmonella typhimurium strain developed to include a gene coding for the β-galactosidase (β-gal) enzyme tethered to the umuC, a damage response gene. DNA damage activates the SOS system to transcribe β-gal proportional to the level of SOS induction. The UMU-ChromoTest™ bacterial strain has modifications to increase sensitivity to genotoxins with (a) increased sensitivity for even limited damage, (b) modified outer membrane of the cell to increase permeability to exogenous materials, and (c) production of a color change on addition to chromogenic substrate (ONPG), which is a quantitative measure of genotoxic damage to bacterial DNA.
Rehydration of Dried Bacteria and Culture Growth: The bacteria were rehydrated and incubated at 37° C. for 16-18 hours. OD600 of the overnight culture should be 0.5 or at least above 0.1 at 600 nm.
Sample Preparation and Plate Setup: The dimer compounds were dissolved in DMSO. All dilution and controls were made in the solvent of 10% DMSO in sterile 0.85% saline. The pH of the compounds was adjusted to 7.0±0.2 before incubation with bacteria to facilitate bacterial growth and prevent degradation of ONPG later in the assay. The solutions of hydrochloric acid and sodium hydroxide were used to adjust pH with minimal addition volumes to prevent excessive sample dilution. Six samples were run at 4 dilutions at a time.
Preliminary Dilution of Bacteria: The overnight bacterial culture was diluted to 50% by performing a reinoculation with 5 mL of overnight growth and 5 mL of fresh Growth media. The reinoculated bacteria was inoculated for 1.5 hours at 37° C. The OD600 should be approximately 80% of the reading from overnight growth or slightly higher.
Preparation of Plate A: Distilled water (180 μL) was added to all wells, except for rows A to F, columns 1 to 3 and row H, columns 1 to 6. Rows A to F are used for 6 compounds per plate. The test compounds (360 μL) were added to the first three wells (three replicates) of the same microplate, such that wells 1-3 were a triplicate set of the highest concertation of test compound (360 μL). Wells 4-12 each contained 180 μL of distilled water. For dilution, half of the contents (180 μL) from wells 1-3 was transferred to wells 4-6 which makes a second triplicate set. For a third dilution, half of the contents from wells 4-6 were transferred to 7-9, and for the fourth triplicate set, half of the contents from wells 7-9 was transferred to 10-12. […]

E. faecalis (ATCC 29212) [9] = test: Minimum bactericidal concentration (MBC) assay, E. faecalis; assay type: cell-based, Enterococcus faecalis
Method: as §1

VREF (ATCC 51299) = test: Minimum bactericidal concentration (MBC) assay, VREF; assay type: cell-based, Enterococcus faecalis; conditions: Enterococcus faecalis, ATCC51299, read-out: MBC (bactericidal activity)
Method: as §1

[10] = ATCC29213, 24 h, S. aureus, read-out: MBC (kills bacteria)
[11] = ATCC29213, read-out: MIC (bacterial growth inhibition), S. aureus, time not given
[12] = ATCC25922, read-out: MIC (bacterial growth inhibition), E. coli
[13] = ATCC29213, read-out: MIC (bacterial growth inhibition)

**Q.** Which MIC ([1]; 24 h) does the source give for `COc1ccc2c3c([nH]c2c1)C(CC(CC1=NCCc2c1[nH]c1cc(OC)ccc21)c1ccncc1)=NCC3` [GK517.4] here?
**A.** 64.7 µg/mL (≈ 125 µM)

**Q.** What about the MBC (MRSA (ATCC 43300); MRSA, read-out: MBC) of the same compound?
**A.** > 129 µg/mL

**Q.** What about the MBC (MRSA (ATCC 43300); MRSA, read-out: MRSA-MBC) of the same compound?
**A.** > 250 µM

**Q.** And the MBC (S. aureus (ATCC 29213) [2]; [10])?
**A.** 64.7 µg/mL

**Q.** What about the MIC (S. aureus (ATCC 29213) [3]; ATCC29213, 24 h, read-out: MIC (bacterial growth inhibition), S. aureus, up to 24 hours) of the same compound?
**A.** 64.7 µg/mL (≈ 125 µM)

**Q.** And the “MIC (bacterial growth inhibition)” value (E. coli (ATCC 25922); E. coli)?
**A.** no activity was observed

**Q.** Which results are given for `COc1ccc2c3c([nH]c2c1)C(CC(CC1=NCCc2c1[nH]c1cc(OC)ccc21)c1cncs1)=NCC3` [GK524]?
**A.** MIC [1]: 16.4 µg/mL (≈ 31.2 µM); MIC ([4]; after 24 hours of incubation): 12.2 µg/mL (≈ 23.4 µM); MIC ([4]; after 48 hours of incubation): 25 µg/mL (≈ 47.7 µM); bacteriostatic/bactericidal activity [5]: show bacteriostatic and bactericidal activity; solubility in DMSO (time to dissolve) (Solubility in DMSO): instantly; MBC (MRSA (ATCC 43300); MRSA, read-out: MBC): 32.7 µg/mL; MBC (MRSA (ATCC 43300); MRSA, read-out: MRSA-MBC): 62.5 µM; MBC (S. aureus (ATCC 29213) [2]; [10]): 65.5 µg/mL; MBC (S. aureus (ATCC 29213) [2]; ATCC29213, S. aureus, read-out: MBC (bactericidal activity)): 125 µM; MIC (S. aureus (ATCC 29213) [3]; [11]): 32.7 µg/mL (≈ 62.5 µM); higher efficacy than harmaline (S. aureus (ATCC 29213) [3]; antibacterial efficacy versus harmaline): ~15 fold; higher antibacterial activity than harmaline dimer without a substitution (GZ440/6) (S. aureus (ATCC 29213) [3]; versus GZ440/6): 1.75 fold; MIC (bacterial growth inhibition) (E. coli (ATCC 25922); E. coli): No bacteriostatic or bactericidal activities were observed

**Q.** Which results are given for `COc1ccc2c3c([nH]c2c1)C(/C=C\c1cc(Br)ccc1/N=C/c1cc(Br)ccc1N)=NCC3` [GK578, 4-bromo-2-((E)-((4-bromo-2-((Z)-2-(7-methoxy-4,9-dihydro-3H-pyrido[3,4-b]indol-1-yl)vinyl)phenyl)imino)methyl)aniline]?
**A.** concentration showing significant reduction in growth (E. coli (ATCC 25922); E. coli): 3.12 µg/mL; inhibition in growth (E. coli (ATCC 25922); incubated with E. coli for 10-75 hrs): 50%

**Q.** Which MIC [1] does the source give for `COc1ccc2c3c([nH]c2c1)C(CC(CC1=NCCc2c1[nH]c1cc(OC)ccc21)c1c[nH]c2ccc(C#N)cc12)=NCC3` [GK580, 3-(1,3-bis(7-methoxy-4,9-dihydro-3H-pyrido[3,4-b]indol-1-yl)propan-2-yl)-1H-indole-5-carbonitrile] here?
**A.** 3.5 µg/mL (≈ 6.03 µM)

**Q.** And the MIC ([4]; after 24 hours of incubation)?
**A.** 12.2 µg/mL (≈ 21.1 µM)

**Q.** And the MIC ([4]; after 48 hours of incubation)?
**A.** 12.2 µg/mL (≈ 21.1 µM)

**Q.** And the “concentration inhibiting fungal growth” value ([4]; time not stated)?
**A.** 12.5 µg/mL

**Q.** What about the MIC (E. faecalis (ATCC 29212) [6]) of the same compound?
**A.** 44 µg/mL (≈ 75.8 µM)

**Q.** And the MBC (MRSA (ATCC 43300); MRSA, read-out: MBC)?
**A.** 7 µg/mL

**Q.** What about the MBC (S. aureus (ATCC 29213) [2]; [10]) of the same compound?
**A.** 11 µg/mL

**Q.** What about the MIC [7] of the same compound?
**A.** > 88 µg/mL

**Q.** What about the “MIC (bacterial growth inhibition)” value (S. aureus (ATCC 29213) [3]; time not given) of the same compound?
**A.** 3.5 µg/mL (≈ 6.03 µM)

**Q.** And the MIC (S. aureus (ATCC 29213) [3]; [11])?
**A.** 5.5 µg/mL (≈ 9.47 µM)

**Q.** And the “genotoxic concentration (no genotoxicity up to)” value ([8]; S9 not stated)?
**A.** > 30 µg/mL

**Q.** And the “MBC (kills bacteria)” value (E. faecalis (ATCC 29212) [9])?
**A.** > 88 µg/mL

**Q.** And the MIC (E. coli (ATCC 25922); [12])?
**A.** 12.5 µg/mL (≈ 21.5 µM)

**Q.** For `COc1ccc2c3c([nH]c2c1)C(CC(CC1=NCCc2c1[nH]c1cc(OC)ccc21)c1ccc(C(F)(F)F)nc1)=NCC3` [GK585], which MIC [1] is on record?
**A.** 73.2 µg/mL (≈ 125 µM)

**Q.** And the MBC (MRSA (ATCC 43300); MRSA, read-out: MBC)?
**A.** > 146 µg/mL

**Q.** And the MBC (MRSA (ATCC 43300); MRSA, read-out: MRSA-MBC)?
**A.** > 250 µM

**Q.** And the MBC (S. aureus (ATCC 29213) [2]; [10])?
**A.** > 146 µg/mL

**Q.** And the MIC (S. aureus (ATCC 29213) [3]; [11])?
**A.** 73.2 µg/mL (≈ 125 µM)

**Q.** And the genotoxicity ([8]; at 12.5 and 25 μM)?
**A.** no genotoxicity

**Q.** And the genotoxicity ([8]; at 50 and 100 μM)?
**A.** interfered with testing protocols

**Q.** What about the “MIC (bacterial growth inhibition)” value (E. coli (ATCC 25922); E. coli) of the same compound?
**A.** No bacteriostatic or bactericidal activities were observed

**Q.** With `COc1ccc2c3c([nH]c2c1)C(CC(CC1=NCCc2c1[nH]c1cc(OC)ccc21)c1c[nH]c2ccc(C(=O)O)cc12)=NCC3` [GK599.HCl] as the compound, how does the “concentration at which activity is shown” value ([1]; MRSA) read?
**A.** 12.5 µg/mL

**Q.** What about the “concentration at which activity is shown” value (S. aureus (ATCC 29213) [3]) of the same compound?
**A.** 12.5 µg/mL

**Q.** And the “concentration at which activity is shown” value (E. coli (ATCC 25922); E. coli)?
**A.** 50 µg/mL

**Q.** With `COc1ccc2c3c([nH]c2c1)C(CC(CC1=NCCc2c1[nH]c1cc(OC)ccc21)c1c[nH]c2ccc(C(=O)O)cc12)=NCC3` [GK599] as the compound, how does the “concentration at which activity is shown” value (S. aureus (ATCC 29213) [3]) read?
**A.** 6.25 µg/mL

**Q.** What about the “concentration at which activity is shown” value (E. coli (ATCC 25922); E. coli) of the same compound?
**A.** 100 µg/mL

**Q.** Which MIC [1] does the source give for `COc1ccc2c3c([nH]c2c1)C(CC(CC1=NCCc2c1[nH]c1cc(OC)ccc21)c1c[nH]c2cccc([N+](=O)[O-])c12)=NCC3` [GK600] here?
**A.** 2.75 µg/mL (≈ 4.58 µM)

**Q.** What about the “MIC (bacterial growth inhibition)” value (S. aureus (ATCC 29213) [3]; time not given) of the same compound?
**A.** 3.5 µg/mL (≈ 5.83 µM)

**Q.** And the MIC (S. aureus (ATCC 29213) [3]; [11])?
**A.** 3.1 µg/mL (≈ 5.16 µM)

**Q.** And the “MIC (bacterial growth inhibition)” value (E. coli (ATCC 25922); E. coli)?
**A.** 6.25 µg/mL (≈ 10.4 µM)

**Q.** What about the MIC (E. coli (ATCC 25922); [12]) of the same compound?
**A.** 12.5 µg/mL (≈ 20.8 µM)

**Q.** For `COc1ccc2c3c([nH]c2c1)C(C)=NCC3` [Harmaline, reference compound], which MIC (S. aureus (ATCC 29213) [3]; [13]) is on record?
**A.** 707 µg/mL and 3300 µM

**Q.** What about the MIC (E. coli (ATCC 25922); ATCC25922, read-out: MIC (bacterial growth inhibition)) of the same compound?
**A.** 707 µg/mL and 3300 µM

**Q.** Which results are given for `CN[C@H](CC(C)C)C(=O)N[C@H]1C(=O)N[C@@H](CC(N)=O)C(=O)N[C@H]2C(=O)N[C@H]3C(=O)N[C@H](C(=O)N[C@H](C(=O)O)c4cc(O)cc(O)c4-c4cc3ccc4O)[C@H](O)c3ccc(c(Cl)c3)Oc3cc2cc(c3O[C@@H]2O[C@H](CO)[C@@H](O)[C@H](O)[C@H]2O[C@H]2C[C@](C)(N)[C@H](O)[C@H](C)O2)Oc2ccc(cc2Cl)[C@H]1O` [Vancomycin, reference compound]?
**A.** MIC [1]: 1.56 µg/mL (≈ 1.08 µM); MIC (E. faecalis (ATCC 29212) [6]): 3.12 µg/mL (≈ 2.15 µM); MBC (MRSA (ATCC 43300)): 1.56 µg/mL; MBC (S. aureus (ATCC 29213) [2]; ATCC29213, 24 h, read-out: MBC (kills bacteria)): 1.56 µg/mL; MIC [7]: 25 µg/mL (≈ 17.3 µM); MIC (S. aureus (ATCC 29213) [3]; [13]): 1.56 µg/mL (≈ 1.08 µM); MBC (kills bacteria) (E. faecalis (ATCC 29212) [9]): 6.25 µg/mL (≈ 4.31 µM); MBC (VREF (ATCC 51299)): > 100 µg/mL
